Assays:
[1] = tested on: control sera (pooled serum of ten healthy LUMC hospital workers; commercial negative donor pooled serum from the Dutch bloodbank); type: binding, human; set-up: Binding of Control serum LUMC to linear peptides / Binding of Control serum Blood-bank to linear peptides / Binding of Control serum LUMC to looped peptides / Binding of Control Serum Blood-Bank to Looped peptides / Binding of Control serum LUMC to linear peptides of the protein M of SARS-CoV Urbani / Binding of Control serum Blood-bank to linear peptides of the protein M of SARS-CoV Urbani / Binding of Control serum LUMC to looped peptides of the protein M of SARS-CoV Urbani / Binding of Control Serum Blood-Bank to Looped peptides of the protein M of SARS-CoV Urbani: unit not given here
[2] = tested on: antibodies in sera from SARS patients (sera 1a, 1b, 2, 6, 37, 62, London, SARS-yellow, SARS-green); type: binding, human; set-up: Binding of serum 6 to linear peptides of protein X1 of SARS-CoV Urbani / Binding of serum 37 to linear peptides of protein X1 of SARS-CoV Urbani / Binding of serum 6 to looped/cyclic peptide (PEPSCAN-ELISA) / Binding of serum 37 to looped/cyclic peptide (PEPSCAN-ELISA) / Binding of serum 37 to looped/cyclic peptides of protein X1 of SARS-CoV Urbani / Binding of serum 6 to linear peptides of protein X2 / Binding of serum 37 to linear peptides of protein X2 / Binding of serum 37 to looped/cyclic peptides of protein X2 of SARS-CoV Urbani / Binding of serum 6 to linear peptides of protein M of SARS-CoV Urbani / Binding of serum 37 to linear peptides of protein M of SARS-CoV Urbani / Binding of serum 6 to looped/cyclic peptides of protein M of SARS-CoV Urbani / Binding of serum 37 to looped/cyclic peptides of protein M of SARS-CoV Urbani / Binding of serum 6 to linear peptides of protein X3 of SARS-CoV Urbani / Binding of serum 37 to linear peptides of protein X3 of SARS-CoV Urbani / Binding of serum 37 to looped/cyclic peptides of protein X3 of SARS-CoV Urbani / Binding of serum 6 to linear peptides of protein X4 of SARS-CoV Urbani / Binding of serum 37 to linear peptides of protein X4 of SARS-CoV Urbani / Binding of serum 37 to looped/cyclic peptides of protein X4 of SARS-CoV Urbani / Binding of serum 6 to linear peptides of protein X5 of SARS-CoV Urbani / Binding of serum 37 to linear peptides of protein X5 of SARS-CoV Urbani / Binding of serum 37 to looped/cyclic peptides of protein X5 of SARS-CoV Urbani / Binding of serum 6 to linear peptides of protein N of SARS-CoV Urbani / Binding of serum 37 to linear peptides of protein N of SARS-CoV Urbani / Binding of serum 6 to linear peptide (PEPSCAN-ELISA) / Binding of serum 1a to looped/cyclic peptides of protein N of SARS-CoV Urbani / Binding of serum 1b to looped/cyclic peptides of protein N of SARS-CoV Urbani / Binding of serum 2 to looped/cyclic peptides of protein N of SARS-CoV Urbani / Binding of serum 6 to looped/cyclic peptides of protein N of SARS-CoV Urbani / Binding of serum 37 to looped/cyclic peptides of protein N of SARS-CoV Urbani / Binding of serum 62 to looped/cyclic peptides of protein N of SARS-CoV Urbani / Binding of serum London to looped/cyclic peptides of protein N of SARS-CoV Urbani / Binding of serum SARS-green to looped/cyclic peptides of protein N of SARS-CoV Urbani: unit not given here
[3] = tested on: rabbit serum obtained by immunizing a rabbit with the SARS-CoV strain Frankfurt 1; type: binding; set-up: Binding of a rabbit serum to linear peptides / Binding of a rabbit serum to looped peptides / Rabbit serum linear peptides / Rabbit serum looped peptides / Binding of a rabbit serum to linear peptides of protein N of SARS-CoV Urbani (Rabbit serum linear peptides) / Binding of a rabbit serum to looped/cyclic peptides of protein N of SARS-CoV Urbani (Rabbit serum looped peptides): unit not given here

**Q.** How did the “Binding of Control Serum Blood-Bank to Looped peptides” value [1] turn out when CINACRIIMRCWLCW was run?
**A.** 0.8

**Q.** And the “Binding of Control serum Blood-bank to linear peptides” value [1]?
**A.** 0.7

**Q.** And the “Binding of Control serum LUMC to linear peptides” value [1]?
**A.** 0.8

**Q.** And the “Binding of Control serum LUMC to looped peptides” value [1]?
**A.** 0.7

**Q.** What about the “Binding of serum 1a to linear peptides of protein X1 of SARS-CoV Urbani” value [2] of the same sequence?
**A.** 0.8

**Q.** What about the “Binding of serum 1a to looped/cyclic peptide (PEPSCAN-ELISA)” value [2] of the same sequence?
**A.** 0.7

**Q.** And the “Binding of serum 1b to linear peptides of protein X1 of SARS-CoV Urbani” value [2]?
**A.** 0.5

**Q.** And the “Binding of serum 1b to looped/cyclic peptide (PEPSCAN-ELISA)” value [2]?
**A.** 0.4

**Q.** What about the “Binding of serum 2 to linear peptides of protein X1 of SARS-CoV Urbani” value [2] of the same sequence?
**A.** 0.5

**Q.** And the “Binding of serum 2 to looped/cyclic peptide (PEPSCAN-ELISA)” value [2]?
**A.** 0.6

**Q.** And the “Binding of serum 6 to linear peptides of protein X1 of SARS-CoV Urbani” value [2]?
**A.** 0.7

**Q.** What about the “Binding of serum 6 to looped/cyclic peptide (PEPSCAN-ELISA)” value [2] of the same sequence?
**A.** 0.7

**Q.** What about the “Binding of serum 37 to linear peptides of protein X1 of SARS-CoV Urbani” value [2] of the same sequence?
**A.** 0.6

**Q.** What about the “Binding of serum 37 to looped/cyclic peptide (PEPSCAN-ELISA)” value [2] of the same sequence?
**A.** 0.6

**Q.** And the “Binding of serum 62 to linear peptides of protein X1 of SARS-CoV Urbani” value [2]?
**A.** 0.7

**Q.** What about the “Binding of serum 62 to looped/cyclic peptide (PEPSCAN-ELISA)” value [2] of the same sequence?
**A.** 0.7

**Q.** What about the “Binding of serum London to linear peptides of protein X1 of SARS-CoV Urbani” value [2] of the same sequence?
**A.** 0.4

**Q.** What about the “Binding of serum London to looped/cyclic peptide (PEPSCAN-ELISA)” value [2] of the same sequence?
**A.** 0.8

**Q.** What about the “Binding of serum SARS-green to linear peptides of protein X1 of SARS-CoV Urbani” value [2] of the same sequence?
**A.** 0.2

**Q.** And the “Binding of serum SARS-green to looped/cyclic peptide (PEPSCAN-ELISA)” value [2]?
**A.** 0.3

**Q.** And the “Binding of serum SARS-yellow to linear peptides of protein X1 of SARS-CoV Urbani” value [2]?
**A.** 0.4

**Q.** What about the “Binding of serum SARS-yellow to looped/cyclic peptide (PEPSCAN-ELISA)” value [2] of the same sequence?
**A.** 0.5

**Q.** What about the “Recognition of the peptide by the rabbit serum” value [3] of the same sequence?
**A.** recognized

**Q.** Which “Binding of Control Serum Blood-Bank to Looped peptides of the protein M of SARS-CoV Urbani” value [1] does the source give for CIVGLMWLSYFVASF here?
**A.** 0.6

**Q.** What about the “Binding of Control serum Blood-bank to linear peptides of the protein M of SARS-CoV Urbani” value [1] of the same sequence?
**A.** 0.4

**Q.** And the “Binding of Control serum LUMC to linear peptides of the protein M of SARS-CoV Urbani” value [1]?
**A.** 0.5

**Q.** And the “Binding of Control serum LUMC to looped peptides of the protein M of SARS-CoV Urbani” value [1]?
**A.** 0.7

**Q.** And the “Binding of serum 1a to linear peptides of protein M of SARS-CoV Urbani” value [2]?
**A.** 0.7

**Q.** What about the “Binding of serum 1a to looped/cyclic peptides of protein M of SARS-CoV Urbani” value [2] of the same sequence?
**A.** 0.5

**Q.** What about the “Binding of serum 1b to linear peptides of protein M of SARS-CoV Urbani” value [2] of the same sequence?
**A.** 0.5

**Q.** And the “Binding of serum 1b to looped/cyclic peptides of protein M of SARS-CoV Urbani” value [2]?
**A.** 0.2

**Q.** What about the “Binding of serum 2 to linear peptides of protein M of SARS-CoV Urbani” value [2] of the same sequence?
**A.** 0.3

**Q.** What about the “Binding of serum 2 to looped/cyclic peptides of protein M of SARS-CoV Urbani” value [2] of the same sequence?
**A.** 0.4

**Q.** And the “Binding of serum 6 to linear peptides of protein M of SARS-CoV Urbani” value [2]?
**A.** 0.3

**Q.** What about the “Binding of serum 6 to looped/cyclic peptides of protein M of SARS-CoV Urbani” value [2] of the same sequence?
**A.** 0.4

**Q.** And the “Binding of serum 37 to linear peptides of protein M of SARS-CoV Urbani” value [2]?
**A.** 0.4

**Q.** And the “Binding of serum 37 to looped/cyclic peptides of protein M of SARS-CoV Urbani” value [2]?
**A.** 0.6

**Q.** What about the “Binding of serum 62 to linear peptides of protein M of SARS-CoV Urbani” value [2] of the same sequence?
**A.** 0.4

**Q.** And the “Binding of serum 62 to looped/cyclic peptides of protein M of SARS-CoV Urbani” value [2]?
**A.** 0.4

**Q.** And the “Binding of serum London to linear peptides of protein M of SARS-CoV Urbani” value [2]?
**A.** 0.3

**Q.** And the “Binding of serum London to looped/cyclic peptides of protein M of SARS-CoV Urbani” value [2]?
**A.** 0.2

**Q.** What about the “Binding of serum SARS-green to linear peptides of protein M of SARS-CoV Urbani” value [2] of the same sequence?
**A.** 0.3

**Q.** And the “Binding of serum SARS-green to looped/cyclic peptides of protein M of SARS-CoV Urbani” value [2]?
**A.** 0.0

**Q.** What about the “Binding of serum SARS-yellow to linear peptides of protein M of SARS-CoV Urbani” value [2] of the same sequence?
**A.** 0.1

**Q.** What about the “Binding of serum SARS-yellow to looped/cyclic peptides of protein M of SARS-CoV Urbani” value [2] of the same sequence?
**A.** 0.5

**Q.** And the “Rabbit serum linear peptides” value [3]?
**A.** 0.1

**Q.** And the “Rabbit serum looped peptides” value [3]?
**A.** 0.3

**Q.** How did the “Binding of Control Serum Blood-Bank to Looped peptides” value [1] turn out when CKSKNPLLYDANYFV was run?
**A.** 0.6

**Q.** And the “Binding of Control serum Blood-bank to linear peptides” value [1]?
**A.** 0.5

**Q.** And the “Binding of Control serum LUMC to linear peptides” value [1]?
**A.** 0.8

**Q.** What about the “Binding of Control serum LUMC to looped peptides” value [1] of the same sequence?
**A.** 0.8

**Q.** And the “Binding of serum 1a to linear peptides of protein X1 of SARS-CoV Urbani” value [2]?
**A.** 0.8

**Q.** What about the “Binding of serum 1a to looped/cyclic peptide (PEPSCAN-ELISA)” value [2] of the same sequence?
**A.** 0.8

**Q.** What about the “Binding of serum 1b to linear peptides of protein X1 of SARS-CoV Urbani” value [2] of the same sequence?
**A.** 0.5

**Q.** What about the “Binding of serum 1b to looped/cyclic peptide (PEPSCAN-ELISA)” value [2] of the same sequence?
**A.** 0.6

**Q.** What about the “Binding of serum 2 to linear peptides of protein X1 of SARS-CoV Urbani” value [2] of the same sequence?
**A.** 0.5

**Q.** And the “Binding of serum 2 to looped/cyclic peptide (PEPSCAN-ELISA)” value [2]?
**A.** 0.5

**Q.** And the “Binding of serum 6 to linear peptides of protein X1 of SARS-CoV Urbani” value [2]?
**A.** 0.6

**Q.** And the “Binding of serum 6 to looped/cyclic peptide (PEPSCAN-ELISA)” value [2]?
**A.** 0.4

**Q.** And the “Binding of serum 37 to linear peptides of protein X1 of SARS-CoV Urbani” value [2]?
**A.** 0.7

**Q.** What about the “Binding of serum 37 to looped/cyclic peptide (PEPSCAN-ELISA)” value [2] of the same sequence?
**A.** 0.8

**Q.** What about the “Binding of serum 62 to linear peptides of protein X1 of SARS-CoV Urbani” value [2] of the same sequence?
**A.** 0.5

**Q.** And the “Binding of serum 62 to looped/cyclic peptide (PEPSCAN-ELISA)” value [2]?
**A.** 0.8

**Q.** What about the “Binding of serum London to linear peptides of protein X1 of SARS-CoV Urbani” value [2] of the same sequence?
**A.** 0.3

**Q.** What about the “Binding of serum London to looped/cyclic peptide (PEPSCAN-ELISA)” value [2] of the same sequence?
**A.** 0.2

**Q.** What about the “Binding of serum SARS-green to linear peptides of protein X1 of SARS-CoV Urbani” value [2] of the same sequence?
**A.** 0.2

**Q.** What about the “Binding of serum SARS-green to looped/cyclic peptide (PEPSCAN-ELISA)” value [2] of the same sequence?
**A.** 0.3

**Q.** And the “Binding of serum SARS-yellow to linear peptides of protein X1 of SARS-CoV Urbani” value [2]?
**A.** 0.2

**Q.** What about the “Binding of serum SARS-yellow to looped/cyclic peptide (PEPSCAN-ELISA)” value [2] of the same sequence?
**A.** 0.5

**Q.** What about the “Binding of a rabbit serum to linear peptides” value [3] of the same sequence?
**A.** 0.1

**Q.** And the “Binding of a rabbit serum to looped peptides” value [3]?
**A.** 0.6

— patent US20070128217A1 (priority 2003, published 2007)
